This passage reports AC50, EC50 and IC50 results from ChEMBL document CHEMBL1201862, “PubChem BioAssay data set” (2004).

A short description of assay [1]: MITF: Counter assay: A375 proliferation Measured in Cell-Based System Using Plate Reader - 2084-03_Inhibitor_Dose_DryPowder_Activity_Set8. To be noted: A-375. The assay is classed as functional.
Assay [2] can be described thus: MITF Orthogonal Assay: SK-MEL-5 CTG Assay Measured in Cell-Based System Using Plate Reader - 2084-02_Inhibitor_Dose_DryPowder_Activity_Set7. The assay is classed as functional.
Assay [3] in a line: inhibitors of TRPM1-promoter reporter in SK-MEL-5 – cell-based, luciferase, dry powder, set 8, MITF inhibitor project, dose response (AID 624430). The assay is classed as functional.
A short description of assay [4]: blockers of HIV-1 ZM109 envelope-driven cell-cell fusion – HeLa effector, CEM target cells, luciferase, cherry-pick, dose response (AID 652058).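 Further: luciferase signal from HIV-1 Env mediated cell-cell fusion of effector and target cells.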 Type of assay: functional, cell-based.
Assay [5] can be described thus: A549 cell cytotoxicity, dose response, cytotoxicity control, plate reader, cherry-pick, antagonist series (AID 743412). The assay is classed as functional, cell-based.
A short description of assay [6]: blockers of HIV-1 envelope-mediated cell-cell fusion – cherry-pick, dose response (AID 652057). Type of assay: functional, cell-based.
Assay [7] is described as follows: viability loss in CEM21 cells – cell-based, CellTiter-Glo luminescence, cherry-picked, cytotoxicity control for viral fusion inhibitor project, dose response (AID 652042).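 Further: potency for signal decrease meaning cytotoxicity.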 The assay is classed as functional.
The subject of another assay is INS1. Description: INS-1E survival protection against cytokine death – cell-based, luminescence, retest, dose response (AID 449756).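 Further: cell death triggered by IL-1 beta plus TNF-alpha plus IFN-gamma mixture; protective hits raise ATP signal compared with cytokine alone wells.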 Particulars: Rattus norvegicus. The assay is classed as functional.
The nature of assay [8]: off-target signal loss in HeLa-CEM21 co-culture – HeLa F-luc CTL cells, cherry-picked, counter-screen for HIV-1 Env fusion inhibitor project, dose response (AID 652040).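 Further: potency for signal decrease marking cytotoxic or nonspecific inhibition.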 The assay is classed as functional, cell-based. Background: Counterscreens check selectivity or assay interference.
Assay [9] in a line: blockade of melanocortin 4 receptor signaling – cell-based, plate reader, cherry pick, counter-screen for LGR2 antagonist project, dose response (AID 743444).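 Further: transfected HEK 293 cells stimulated with alpha-MSH peptide; potency of inhibitors of the alpha-MSH evoked signal.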 The assay is classed as functional.
The nature of assay [10]: HIV-1 AD8 envelope cell-cell fusion blockers – cherry-pick, dose response (AID 652062).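 Further: luciferase signal from cell-cell fusion driven by HIV-1 clade B AD8 Env; potency is for inhibitors of fusion seen as a drop in luminescence.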 Type of assay: functional, cell-based.
The nature of assay [11]: toxicity toward HepG2 liver cells – cell-based, plate reader, cherry-pick, antagonist series, cytotoxicity control, dose response (AID 743416). The assay is classed as functional.
Assay [12] can be described thus: blockers of bursicon-stimulated LGR2 cAMP reporter – cell-based, HEK293, CRE-luciferase reporter, cherry pick, set 2, dose response (AID 743343).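 Further: transfected cells were stimulated with diluted bursicon conditioned medium after compound addition.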 The assay is classed as functional. Background: A reporter such as luciferase makes a cellular process visible.
A short description of assay [13]: viability loss in HEK293 cells – cell-based, plate reader, cherry-picked samples, cytotoxicity control, dose response (AID 743446). Type of assay: functional.
The nature of assay [14]: toxicity to human hepatoma HepG2 cells – cell-based, cherry-picked samples, cytotoxicity control, dose response (AID 1159577). The assay is classed as functional.
The nature of assay [15]: HEK293 cell viability loss – cherry-picked samples, cytotoxicity control, dose response (AID 1053185). Type of assay: functional, cell-based.
The nature of assay [16]: P. falciparum Dd2 growth inhibitors, dose response, SYBR Green, cherry-picked samples (AID 1159567). The assay is classed as functional, cell-based.
Assay [17] can be described thus: HepG2 cell viability loss – cherry-picked samples, cytotoxicity control, dose response (AID 1053183). Type of assay: functional, cell-based.
A short description of assay [18]: A549 cell viability loss – cherry-picked samples, cytotoxicity control, dose response (AID 1053184). The assay is classed as functional, cell-based.
A short description of assay [19]: viability loss in HepG2 hepatoma cells – cell-based, cherry-picks, set 5, cytotoxicity control, dose response (AID 1053118). The assay is classed as functional.
Assay [20] in a line: viability loss in HEK293 kidney cells – cell-based, cherry-picks, set 5, cytotoxicity control, dose response (AID 1053117). Type of assay: functional.
Assay [21] can be described thus: blockers of FN fibrillogenesis by fibroblasts – AH1F cells, Alexa488-FN fluorescence, cherry-picks, dose response (AID 1035475). Type of assay: functional, cell-based.
A short description of assay [22]: cells.
In assay [23] the target is T1, Oxysterols receptor LXR-beta (Homo sapiens, UniProt P55055).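 Further: Cell-based luminescence dose-response assay of agonist activity at LXR, run as a confirmatory counterscreen to a daf-12 agonist screen; HEK293 cells with Gal4-LXR fusion and GAL4-driven luciferase reporter; agonist potency from rising luciferase signal of a Gal4-LXR reporter.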
T1 sequence (P55055 whole entry): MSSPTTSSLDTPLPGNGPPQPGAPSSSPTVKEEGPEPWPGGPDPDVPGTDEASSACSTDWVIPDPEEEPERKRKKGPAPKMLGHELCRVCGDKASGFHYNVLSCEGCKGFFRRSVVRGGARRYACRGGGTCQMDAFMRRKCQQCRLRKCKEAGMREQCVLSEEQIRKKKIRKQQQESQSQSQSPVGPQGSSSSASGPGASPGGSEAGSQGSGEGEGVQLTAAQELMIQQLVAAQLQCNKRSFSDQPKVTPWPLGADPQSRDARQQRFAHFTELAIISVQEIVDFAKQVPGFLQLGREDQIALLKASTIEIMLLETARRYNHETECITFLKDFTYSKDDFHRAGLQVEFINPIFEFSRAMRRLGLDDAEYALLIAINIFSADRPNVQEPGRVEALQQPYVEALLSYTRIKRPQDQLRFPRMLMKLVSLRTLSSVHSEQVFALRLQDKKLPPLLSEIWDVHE
The assay is classed as functional, cell-based.

In assay [24] the target is Dual specificity tyrosine-phosphorylation-regulated kinase 1A (Rattus norvegicus, UniProt Q63470). The assay is classed as biochemical, Homo sapiens.
The target in assay [25] is T2, Rac GTPase-activating protein 1 (Homo sapiens, UniProt Q9H0H5).
T2 sequence (Q9H0H5 whole entry): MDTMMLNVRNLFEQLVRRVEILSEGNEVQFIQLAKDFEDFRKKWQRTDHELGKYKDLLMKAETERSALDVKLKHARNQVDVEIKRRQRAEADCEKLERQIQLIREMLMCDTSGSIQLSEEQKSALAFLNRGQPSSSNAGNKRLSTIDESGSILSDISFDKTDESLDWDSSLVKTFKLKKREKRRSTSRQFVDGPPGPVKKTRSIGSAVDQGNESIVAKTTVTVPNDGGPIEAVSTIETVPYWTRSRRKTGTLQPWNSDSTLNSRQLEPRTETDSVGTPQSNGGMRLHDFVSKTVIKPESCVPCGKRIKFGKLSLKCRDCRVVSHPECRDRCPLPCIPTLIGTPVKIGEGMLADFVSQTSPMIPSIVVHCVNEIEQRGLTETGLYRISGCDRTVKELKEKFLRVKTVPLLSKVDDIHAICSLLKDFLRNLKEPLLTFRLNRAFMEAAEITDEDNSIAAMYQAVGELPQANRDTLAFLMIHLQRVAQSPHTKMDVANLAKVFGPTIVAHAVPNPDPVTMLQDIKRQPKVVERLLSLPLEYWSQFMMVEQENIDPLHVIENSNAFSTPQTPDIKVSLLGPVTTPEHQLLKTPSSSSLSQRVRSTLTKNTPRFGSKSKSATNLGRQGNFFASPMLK
Description: blockers of MgcRacGAP-driven Rac1 GTP hydrolysis – biochemical, ADP Hunter fluorescence, primary and confirmatory, confirmation (AID 624330). The assay is classed as functional.

The nature of assay [26]: cells. Particulars: A549.
The nature of assay [27]: Late-stage results from the probe development effort to identify antagonists of arginine vasopressin receptor 1a (AVPR1a): fluorescence-based cell-based dose response AVPR1a inhibition assay. Type of assay: functional.
In the next assay the target is Vasopressin V1b receptor (Homo sapiens, UniProt P47901). As to the kind of experiment: Late-stage results from the probe development effort to identify antagonists of arginine vasopressin receptor 1a (AVPR1a): fluorescence-based cell-based dose response AVPR1b inhibition counterscreen assay. The assay is classed as functional.
Chain of Vasopressin V1b receptor (P47901 whole entry): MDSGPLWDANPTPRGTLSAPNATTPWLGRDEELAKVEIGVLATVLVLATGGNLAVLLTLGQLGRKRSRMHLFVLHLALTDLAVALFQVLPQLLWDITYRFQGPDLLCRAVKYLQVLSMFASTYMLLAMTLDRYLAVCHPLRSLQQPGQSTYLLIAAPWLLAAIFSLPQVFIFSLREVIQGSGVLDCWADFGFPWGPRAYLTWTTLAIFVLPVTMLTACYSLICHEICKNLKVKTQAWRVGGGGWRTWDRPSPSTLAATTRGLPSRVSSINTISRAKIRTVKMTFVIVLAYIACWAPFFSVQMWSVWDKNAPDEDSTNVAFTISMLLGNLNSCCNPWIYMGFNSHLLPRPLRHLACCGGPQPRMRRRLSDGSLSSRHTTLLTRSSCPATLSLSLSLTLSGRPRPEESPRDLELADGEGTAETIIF
The nature of assay [28]: Late-stage results from the probe development effort to identify antagonists of arginine vasopressin receptor 1a (AVPR1a): fluorescence-based cell-based dose response OXTR inhibition counterscreen assay. The assay is classed as functional.
The target of the next assay is Vasopressin V2 receptor (Homo sapiens, UniProt P30518). As to the kind of experiment: Late-stage results from the probe development effort to identify antagonists of arginine vasopressin receptor 1a (AVPR1a): fluorescence-based cell-based dose response AVPR2 inhibition counterscreen assay. Type of assay: functional.
Chain of Vasopressin V2 receptor (P30518 whole entry): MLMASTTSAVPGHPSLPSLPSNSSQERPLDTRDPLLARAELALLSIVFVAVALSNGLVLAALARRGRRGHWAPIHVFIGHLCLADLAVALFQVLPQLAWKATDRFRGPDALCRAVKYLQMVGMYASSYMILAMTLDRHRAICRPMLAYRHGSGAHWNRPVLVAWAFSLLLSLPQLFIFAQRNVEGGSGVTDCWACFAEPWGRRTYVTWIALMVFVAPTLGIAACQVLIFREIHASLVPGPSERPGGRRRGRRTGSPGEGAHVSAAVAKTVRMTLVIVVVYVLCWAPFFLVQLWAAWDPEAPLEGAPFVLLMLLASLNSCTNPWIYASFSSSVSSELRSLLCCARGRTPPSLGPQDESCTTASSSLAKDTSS
In assay [29] the target is Endoplasmic reticulum aminopeptidase 1 (Homo sapiens, UniProt Q9NZ08). Description: inhibition of human ERAP1 enzyme activity – biochemical, cherry-pick, set 2, plate reader, dose response (AID 743314).
Chain of Endoplasmic reticulum aminopeptidase 1 (Q9NZ08 whole entry): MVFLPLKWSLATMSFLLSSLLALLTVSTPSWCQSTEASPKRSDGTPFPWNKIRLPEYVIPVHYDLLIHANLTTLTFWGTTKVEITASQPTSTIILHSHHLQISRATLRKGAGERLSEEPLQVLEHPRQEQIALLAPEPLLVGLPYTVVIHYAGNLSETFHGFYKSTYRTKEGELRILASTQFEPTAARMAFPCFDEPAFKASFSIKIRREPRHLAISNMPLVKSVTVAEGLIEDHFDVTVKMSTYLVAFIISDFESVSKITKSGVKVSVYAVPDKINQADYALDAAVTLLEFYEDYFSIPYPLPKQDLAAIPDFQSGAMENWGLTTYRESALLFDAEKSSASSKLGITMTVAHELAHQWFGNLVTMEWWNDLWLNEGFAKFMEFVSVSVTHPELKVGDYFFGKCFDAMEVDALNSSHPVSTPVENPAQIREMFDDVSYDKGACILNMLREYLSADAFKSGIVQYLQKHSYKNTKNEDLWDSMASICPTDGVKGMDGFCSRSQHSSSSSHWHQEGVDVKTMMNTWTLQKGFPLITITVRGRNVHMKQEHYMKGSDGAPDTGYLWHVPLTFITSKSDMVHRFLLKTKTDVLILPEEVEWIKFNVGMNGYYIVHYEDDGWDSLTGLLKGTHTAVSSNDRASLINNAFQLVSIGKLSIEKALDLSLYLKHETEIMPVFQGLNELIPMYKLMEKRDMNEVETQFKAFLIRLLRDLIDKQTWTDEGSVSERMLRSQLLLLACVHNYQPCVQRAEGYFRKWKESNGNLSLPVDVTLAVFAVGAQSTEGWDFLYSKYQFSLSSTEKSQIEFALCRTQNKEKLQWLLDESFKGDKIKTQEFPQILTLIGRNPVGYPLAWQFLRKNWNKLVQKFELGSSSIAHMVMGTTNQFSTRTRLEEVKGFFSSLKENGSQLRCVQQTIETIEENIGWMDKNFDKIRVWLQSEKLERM

SMILES strings stand for the structures. The source made the active and inactive calls. A value given as a limit tells only on which side of the number the result lay.

Take `CN1CCN(C2=C(Nc3cccc(Cl)c3)C(=O)c3ccccc3C2=O)CC1`: the AC50 in [1] is 30.7 µM (active); in assay [2] it was 11.1 µM (active); in [3], 5.11 µM (active).

For the compound `Cc1nc(N/N=C/c2ccccn2)sc1C`, the AC50 in [4] was 18.8 µM (active); in [5] it was 5.22 µM (active); in [6], 3.74 µM (active); in [7], 6.02 µM (active); in the assay on INS1, 3.83 µM (active); in assay [8], 13.5 µM (active). In addition, the AC50 in assay [9] was 0.949 µM (active); in [10], 6.45 µM (active); in assay [11], 2.7 µM (active); in [12], 0.573 µM (active); in [13] it was 7.53 µM (active).

Consider `C/C=C/c1ccc([C@@H]2[C@@H]3CN(C(=O)Nc4ccc(C(F)(F)F)cc4)C[C@H]2N3)cc1`, for which the AC50 was 10.3 µM (active) in assay [14]; 16.6 µM (active) in assay [15]; 6.85 µM (active) in assay [16]; 16.7 µM (active) in [17]; 18.1 µM (active) in [18].

In the case of `CO[C@H]1CN(C)C(=O)c2ccc(NC(=O)Nc3ccc(Cl)c(Cl)c3)cc2OC[C@H](C)NC[C@@H]1C`, the figures for the AC50 in assay [19], in assay [20] and in assay [21] were 11.2 µM (active), 18.4 µM (active) and 53.6 µM (active), respectively.

In the case of `CSc1nc(/C=C2\C=Nc3ccccc32)c(O)[nH]1`, the EC50 (in “cells [22]”; in [23]) was > 67.6 µM (inactive) in each case. Further, the AC50 in [24] was 7.28 µM (active). Besides, the IC50 in assay [25] was 35.9 µM (active).

For the compound `CCN(CC)c1ccc2c(C)c(Cl)c(=O)oc2c1`, the AC50 in the assay “cells [26]” was > 52 µM (inactive).

As to `O=C(C1CCN(c2ncccc2F)CC1)N(CC1CC1)c1ccc(Cl)cc1`, the IC50 was 0.015 µM (active) in [27], 11.5 µM (inactive) at Vasopressin V1b receptor, 3.6 µM (active) in assay [28] and 19 µM (inactive) at Vasopressin V2 receptor.

As to `Cc1c(C)c2ccc(O)c(CN3CCN(C)CC3)c2oc1=O`, the AC50 in assay [29] is 10.8 µM (active).

A word on the AC50: it is the concentration giving half of the maximal activity seen. For orientation: EC50 means the concentration at which the effect is half-maximal. What is called IC50 is the midpoint of a concentration-inhibition curve.
